# Molecular target: human V1a receptor (Homo sapiens (Human), UniProt P37288)
# Experiment: human V1a receptor binding studies (3H-Vasopressin, SPA beads)
# Conditions: membranes of HEK293 cells transiently transfected with human V1a receptor, Ki by Cheng-Prussoff
# In short: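 Membranes from HEK293 cells transiently expressing cloned human V1a receptor, bound on yttrium silicate SPA beads with 4 nM 3H-vasopressin (added stock) and serially diluted compound, 1 h at room temperature. Non-specific binding defined with cold vasopressin; IC50 by non-linear regression, Ki via Cheng-Prusoff.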
# Sequence of human V1a receptor (P37288 whole entry): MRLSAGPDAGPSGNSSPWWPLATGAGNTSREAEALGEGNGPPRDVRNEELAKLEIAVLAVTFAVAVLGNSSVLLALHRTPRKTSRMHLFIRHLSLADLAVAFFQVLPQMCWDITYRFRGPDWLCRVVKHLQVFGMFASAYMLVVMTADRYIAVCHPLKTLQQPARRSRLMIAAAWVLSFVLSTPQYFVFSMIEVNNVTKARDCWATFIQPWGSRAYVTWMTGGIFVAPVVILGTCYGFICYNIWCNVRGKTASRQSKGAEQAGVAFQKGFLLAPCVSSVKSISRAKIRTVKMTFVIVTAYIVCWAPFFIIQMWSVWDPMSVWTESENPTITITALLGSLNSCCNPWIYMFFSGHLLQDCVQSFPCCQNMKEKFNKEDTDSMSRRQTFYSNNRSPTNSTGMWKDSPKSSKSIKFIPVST
row,Compound,pKi hV1a
1,"O=C1N=C(N2CCC3(CC2)OCc2ccccc23)S/C1=C1/CCCc2ccccc21 [Example 45, (5Z)-5-(3,4-dihydronaphthalen-1(2H)-ylidene)-2-(1′H,3H-spiro[2-benzofuran-1,4′-piperidin]-1′-yl)-1,3-thiazol-4(5H)-one]",8.7
2,"C/C(=C1/SC(N2CCC3(CC2)OCc2ccncc23)=NC1=O)c1ccc(Cl)cc1 [Example 4, (5E/Z)-5-[1-(4-chlorophenyl)ethylidene]-2-(1H,1′H-spiro[furo[3,4-c]pyridine-3,4′-piperidin]-1′-yl)-1,3-thiazol-4(5H)-one and (5Z)-5-[1-(4-chlorophenyl)ethylidene]-2-(1H,1′H-spiro[furo[3,4-c]pyridine-3,4′-piperidin]-1′-yl)-1,3-thiazol-4(5H)-one]",9.0
3,"[2H]C([2H])([2H])/C(=C1/SC(N2CCC3(CC2)OCc2ccccc23)=NC1=O)c1ccc(C)nc1 [Example 169, (5Z)-5-[1-(6-methylpyridin-3-yl)(^2H3)ethylidene]-2-(1′H,3H-spiro[2-benzofuran-1,4′-piperidin]-1′-yl)-1,3-thiazol-4(5H)-one]",8.8
4,"CC/C(=C1/SC(N2CCC3(CC2)OCc2ccccc23)=NC1=O)c1ccc(Cl)nc1 [Example 133, (5Z)-5-[1-(6-chloropyridin-3-yl)propylidene]-2-(1′H,3H-spiro[2-benzofuran-1,4′-piperidin]-1′-yl)-1,3-thiazol-4(5H)-one]",9.2
5,"CC/C(=C1\SC(N2CCC3(CC2)OCc2ccccc23)=NC1=O)c1ccc(Cl)cc1 [Example 25, (5E)-5-[1-(4-chlorophenyl)propylidene]-2-(1′H,3H-spiro[2-benzofuran-1,4′-piperidin]-1′-yl)-1,3-thiazol-4(5H)-one]",8.2
